Assay results reported in patent US20100093064A1, “Metagenomic Functional Selection” (PRESIDENT AND FELLOWS OF HARVARD COLLEGE, priority 2008, published 2010).

Legend:
E. coli [1] = experiment: Selective inhibitory concentration of lignocellulosic compounds in LB-agar; format: cell-based, Escherichia coli; conditions: 48 hours of growth at 37° C., lowest concentration tested which prevented colony formation
Procedure: The inhibitory concentrations of 14 lignocellulosic compounds in LB-agar (Table 2) were determined for two versions of the E. coli strain used to create the mgDNA libraries—a strain with a control pCC1FOS fosmid insert containing E. coli genomic DNA, and an untransformed strain. […] A range of concentrations for each lignocellulosic compound were tested, based on inhibitory concentrations for E. coli previously reported (1-3).

E. coli [2] = experiment: Kinetic growth / biomass yield analysis in liquid LB-chlor with inhibitor; format: cell-based, Escherichia coli; conditions: for Improvement in biomass yield due to selected metagenomic insert: vs E. coli control, at the inhibitor concentration giving 90% reduction of wild type biomass yield, mgFurAc/2-furoic acid, mgSyrAld/syringaldehyde, mgMetCat/4-methylcatechol; for Inhibitor concentration resulting in 90% reduction in growth yield: wild-type/control E. coli, 24 hours of growth at 37° C.
Procedure: […] DNA library clones conferring tolerance to each of three inhibitors were chosen for further analysis of encoded functional parts from the selected inhibitor plates. For 4-methycatechol, 5 tolerant clones each were chosen from selected mgDNA libraries 1, 3, 4, and 5 (FIG. 2A). For 2-furoic acid, 6-7 tolerant clones each were chosen from selected mgDNA libraries 1, 3 and 4 (FIG. 2A). For syringaldehyde, 10 tolerant clones each were chosen from selected mgDNA libraries 4 and 5 (FIG. 2A). Each colony was grown to saturation (16-18 hours) at 37° C. with shaking in liquid LB medium containing 12.5 μg/mL-chloramphenicol (hereon referred to as LB-chlor). Saturated cultures were diluted 1:40 in fresh LB-chlor and grown to mid-log phase (1-2 hours) at 37° C. with shaking. Log-phase cultures were inoculated (1:40) into LB-chlor containing one of three concentrations of the relevant inhibitor (4-methylcatechol: 0.2, 0.6 and 1 g/L; 2-furoic acid: 0.8, 7.9, 15 g/L; syringaldehyde: 1.55, 1.775 and 2 g/L), with concentrations chosen to sparsely span the range of previously reported inhibitory concentrations of these compounds (J. Zaldivar, L. O. Ingram, Biotechnol Bioeng 66, 203 (1999); J. Zaldivar, A. Martinez, L. O. Ingram, Biotechnol Bioeng 65, 24 (Oct. 5, 1999); J. Zaldivar, A. Martinez, L. O. Ingram, Biotechnol Bioeng 68, 524 (Jun. 5, 2000)). Biomass yield after 24 hours of growth at 37° C. with shaking was determined by end-point turbidity measurements at 600 nm using a Versamax microplate reader (Molecular Devices).
Three mgDNA clones per inhibitor with the highest biomass differential when compared to the E. coli control were chosen for kinetic growth analysis. Growth kinetics were measured at 11 concentrations per inhibitor, evenly spanning the following concentration ranges: 0-1 g/L 4-methylcatechol, 0-1.5 g/L 2-furoic acid, and 0-3 g/L syringaldehyde. Kinetic measurements were done in triplicate for each mgDNA clone and E. coli control by 600 nm measurements every 5 minutes over 24 hours at 37° C. with shaking in a Versamax microplate reader.
To determine whether the observed tolerance in the selected clones was a result of functional parts encoded by mgDNA, fosmids from the 3 kinetically characterized mgDNA clones per inhibitor were extracted using the FosmidMAX DNA Purification Kit (catalog #FMAX046, Epicentre Biotechnologies). Purified fosmids were then retransformed into an electro-competent version of the same control E. coli strain using a standard electroporation protocol. 3 transformant colonies for each of the 3 kinetically characterized mgDNA clones per inhibitor were chosen for a repeat of the inhibitor tolerance kinetic growth analysis (see above). All of the retransformed fosmids for 4-methylcatechol and 2-furoic acid and 2 of the 3 retransformed fosmids for syringaldehyde recapitulated the improved inhibitor tolerance compared to the E. coli control seen for the original mgDNA selected clones. […] Kinetic growth plots for the mgDNA clone with the best improvements in biomass yield at these concentrations per inhibitor are shown in FIG. 4, over a range of inhibitor concentrations. These selected clones were from mgDNA library 3 for 2-furoic acid (mgFurAc), library 4 for syringaldehyde (mgSyrAld), and library 3 for 4-methylcatechol (mgMetCat).

[3] = tested on: oral and gut human-associated microbiome isolates; experiment: Antibiotic resistance profiling of human-associated microbiome isolates; format: cell-based, bacteria isolated from human sputum and fecal samples; conditions: for Microbiome isolates resistant, on average: 1102 oral and gut isolates, antibiotic 20 mg/L in LB
Procedure: Three sputum samples (oral microbiomes) and two fecal samples (gut microbiomes) were collected from three healthy volunteers at three different sampling times (day 1, 140 and 141), and fresh samples were plated on Luria broth (LB) agar. […]. Cultures were incubated for 16 hours at 37° C. and growth was assayed by absorption at 600 nm.

SMILES	Inhibitory Concentration (E. coli [1]) [g/L]	further results
COc1cc(C(=O)O)ccc1O [Vanillic acid]	8.08	
O=CO [Formic acid]	1.15	
Cc1ccc(O)c(O)c1 [Methylcatechol, 4-methylcatechol]	0.20	Improvement in biomass yield due to selected metagenomic insert (E. coli [2]): 6.0 fold; Inhibitor concentration resulting in 90% reduction in growth yield (E. coli [2]): 0.33 g/L
O=Cc1ccco1 [Furfural]	2.95	
O=C(O)c1cn(C2CC2)c2cc(N3CCNCC3)c(F)cc2c1=O [ciprofloxacin]		Microbiome isolates resistant, on average [3]: 26%
COc1cc(C(=O)O)cc(OC)c1O [Syringic acid]	9.55	
O=Cc1ccc(O)cc1 [4-hydroxy-benzaldhehyde]	1.25	
COc1cc(C=O)cc(OC)c1O [Syringaldehyde]	1.55	Improvement in biomass yield due to selected metagenomic insert (E. coli [2]): 5.7 fold; Inhibitor concentration resulting in 90% reduction in growth yield (E. coli [2]): 1.33 g/L
CC1(C)S[C@@H]2[C@H](NC(=O)C(C(=O)O)c3ccccc3)C(=O)N2[C@H]1C(=O)O (some centres unmarked) [carbenicillin]		Microbiome isolates resistant, on average [3]: 39%
COc1cc(C=O)ccc1O [Vanillin]	1.50	
CC(=O)CCC(=O)O [Levulinic acid]	3.00	
Oc1ccc(O)cc1 [Hydroquinone]	1.85	
CCO [Ethanol]	55.00	
CC(=O)O [Acetic Acid]	5.00	
O=C(N[C@H](CO)[C@H](O)c1ccc([N+](=O)[O-])cc1)C(Cl)Cl [chloramphenicol]		Microbiome isolates resistant, on average [3]: 7%; Susceptibility of gut microbiome isolates ([3]; gut isolates from all sampling times, 20 mg/L): almost completely susceptible; O3 day 1 isolates resistant ([3]; oral microbiome O3, day 1, 20 mg/L): 87%
C[C@H]1COc2c(N3CCN(C)CC3)c(F)cc3c(=O)c(C(=O)O)cn1c23 [levofloxacin]		Microbiome isolates resistant, on average [3]: 22%
O=C(O)c1ccco1 [2-Furoic acid]	0.80	Improvement in biomass yield due to selected metagenomic insert (E. coli [2]): 6.9 fold; Inhibitor concentration resulting in 90% reduction in growth yield (E. coli [2]): 1.05 g/L
O=C(O)c1ccc(O)cc1 [4-hydrobenzoic acid]	7.90	
